Assay results published in patent US11767310B2, “Nicotinamide RIPK1 inhibitors” (AbbVie Inc., priority 2021, dated 2023).
Like-named read-outs stand apart in the source and are kept apart here.

How the values were obtained:
Test in all cases: Kinase binding screen
Settings in all cases: read-out: Percent Control at 100 nM Compound Concentration
[1] = molecular target: MAP3K1 (Homo sapiens (Human), UniProt Q13233)
[2] = molecular target: MELK (Homo sapiens (Human), UniProt Q14680)
[3] = molecular target: TAK1 (Homo sapiens (Human), UniProt O43318)
[4] = molecular target: EPHA1 (Homo sapiens (Human), UniProt P21709)
[5] = molecular target: ABL1(Y253F)-pho sphorylated (Homo sapiens (Human), UniProt P00519, Y253F)
[6] = molecular target: ROCK1 (Homo sapiens (Human), UniProt Q13464)
[7] = molecular target: HCK (Homo sapiens (Human), UniProt P08631)
[8] = molecular target: PIK3CA(E545K) (Homo sapiens (Human), UniProt P42336, E545K)
[9] = molecular target: S6K1 (Homo sapiens (Human), UniProt P23443)
[10] = molecular target: MET(M1250T) (Homo sapiens (Human), UniProt P08581, M1250T)
[11] = molecular target: CAMKK1 (Homo sapiens (Human), UniProt Q8N5S9)
[12] = molecular target: PCTK1 (Homo sapiens (Human), UniProt Q00536)
[13] = molecular target: RSK3(Kin.Dom.2-C-terminal) (Homo sapiens (Human), UniProt Q15349)
[14] = molecular target: DYRK1B (Homo sapiens (Human), UniProt Q9Y463)
[15] = molecular target: KIT(D816V) (Homo sapiens (Human), UniProt P10721, D816V)
[16] = molecular target: EGFR(E746-A750del) (Homo sapiens (Human), UniProt P00533, DEL746-750)
[17] = molecular target: CLK2 (Homo sapiens (Human), UniProt P49760)
[18] = molecular target: RSK3(Kin.Dom.1-N-terminal) (Homo sapiens (Human), UniProt Q15349)
[19] = molecular target: PIP5K1A (Homo sapiens (Human), UniProt Q99755)
[20] = molecular target: CSNK1G3 (Homo sapiens (Human), UniProt Q9Y6M4)
[21] = molecular target: MUSK (Homo sapiens (Human), UniProt O15146)
[22] = molecular target: IRAK4 (Homo sapiens (Human), UniProt Q9NWZ3)
[23] = molecular target: FLT3(N841I) (Homo sapiens (Human), UniProt P36888, N841I)
[24] = molecular target: DAPK1 (Homo sapiens (Human), UniProt P53355)
[25] = molecular target: KIT(V559D,T670I) (Homo sapiens (Human), UniProt P10721, T670I/V559D)
[26] = molecular target: INSRR (Homo sapiens (Human), UniProt P14616)
[27] = molecular target: PKAC-beta (Homo sapiens (Human), UniProt P22694)

Chain of S6K1 (P23443 whole entry): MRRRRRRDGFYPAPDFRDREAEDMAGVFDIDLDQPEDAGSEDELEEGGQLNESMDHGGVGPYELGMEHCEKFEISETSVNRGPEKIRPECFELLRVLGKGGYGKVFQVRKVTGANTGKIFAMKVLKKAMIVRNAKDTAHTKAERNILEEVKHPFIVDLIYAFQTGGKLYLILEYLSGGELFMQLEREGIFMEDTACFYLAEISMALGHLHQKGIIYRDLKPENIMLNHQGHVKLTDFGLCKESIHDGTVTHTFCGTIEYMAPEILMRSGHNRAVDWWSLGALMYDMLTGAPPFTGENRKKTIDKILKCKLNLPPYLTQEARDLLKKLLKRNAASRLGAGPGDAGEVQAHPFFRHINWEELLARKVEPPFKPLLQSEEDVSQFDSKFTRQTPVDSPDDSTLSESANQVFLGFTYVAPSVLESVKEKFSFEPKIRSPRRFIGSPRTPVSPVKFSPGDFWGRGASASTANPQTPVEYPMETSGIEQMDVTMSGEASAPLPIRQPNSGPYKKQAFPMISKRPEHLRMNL
Chain of TAK1 (O43318 whole entry): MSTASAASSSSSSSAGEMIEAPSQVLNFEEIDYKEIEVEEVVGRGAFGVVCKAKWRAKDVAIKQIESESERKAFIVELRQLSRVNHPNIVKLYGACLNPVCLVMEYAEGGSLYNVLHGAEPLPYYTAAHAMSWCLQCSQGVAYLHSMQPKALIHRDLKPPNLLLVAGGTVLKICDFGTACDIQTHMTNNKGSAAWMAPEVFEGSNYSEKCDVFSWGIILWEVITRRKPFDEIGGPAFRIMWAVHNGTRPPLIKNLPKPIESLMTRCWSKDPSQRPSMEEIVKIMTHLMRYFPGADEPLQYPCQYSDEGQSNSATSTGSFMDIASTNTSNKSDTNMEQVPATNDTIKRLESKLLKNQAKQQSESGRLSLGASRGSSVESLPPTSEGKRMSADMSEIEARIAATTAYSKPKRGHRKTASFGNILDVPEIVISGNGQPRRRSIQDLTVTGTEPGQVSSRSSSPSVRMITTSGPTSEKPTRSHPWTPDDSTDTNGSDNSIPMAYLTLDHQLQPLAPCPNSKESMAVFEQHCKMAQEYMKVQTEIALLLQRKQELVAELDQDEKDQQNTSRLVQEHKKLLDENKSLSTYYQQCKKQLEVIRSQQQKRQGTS
Chain of HCK (P08631 whole entry): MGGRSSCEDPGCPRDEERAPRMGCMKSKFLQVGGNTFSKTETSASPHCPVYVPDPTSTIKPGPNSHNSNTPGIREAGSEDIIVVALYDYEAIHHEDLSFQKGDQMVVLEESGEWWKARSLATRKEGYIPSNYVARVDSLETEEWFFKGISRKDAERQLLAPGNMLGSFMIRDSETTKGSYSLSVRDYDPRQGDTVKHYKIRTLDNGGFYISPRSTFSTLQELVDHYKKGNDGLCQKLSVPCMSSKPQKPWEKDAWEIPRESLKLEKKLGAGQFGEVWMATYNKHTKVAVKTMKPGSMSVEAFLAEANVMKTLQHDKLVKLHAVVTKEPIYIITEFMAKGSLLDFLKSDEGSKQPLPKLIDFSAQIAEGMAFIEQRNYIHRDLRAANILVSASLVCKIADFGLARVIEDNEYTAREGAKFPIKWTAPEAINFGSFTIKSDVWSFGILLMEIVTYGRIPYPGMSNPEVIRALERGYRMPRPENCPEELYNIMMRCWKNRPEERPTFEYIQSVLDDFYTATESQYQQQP
Chain of MAP3K1 (Q13233 whole entry): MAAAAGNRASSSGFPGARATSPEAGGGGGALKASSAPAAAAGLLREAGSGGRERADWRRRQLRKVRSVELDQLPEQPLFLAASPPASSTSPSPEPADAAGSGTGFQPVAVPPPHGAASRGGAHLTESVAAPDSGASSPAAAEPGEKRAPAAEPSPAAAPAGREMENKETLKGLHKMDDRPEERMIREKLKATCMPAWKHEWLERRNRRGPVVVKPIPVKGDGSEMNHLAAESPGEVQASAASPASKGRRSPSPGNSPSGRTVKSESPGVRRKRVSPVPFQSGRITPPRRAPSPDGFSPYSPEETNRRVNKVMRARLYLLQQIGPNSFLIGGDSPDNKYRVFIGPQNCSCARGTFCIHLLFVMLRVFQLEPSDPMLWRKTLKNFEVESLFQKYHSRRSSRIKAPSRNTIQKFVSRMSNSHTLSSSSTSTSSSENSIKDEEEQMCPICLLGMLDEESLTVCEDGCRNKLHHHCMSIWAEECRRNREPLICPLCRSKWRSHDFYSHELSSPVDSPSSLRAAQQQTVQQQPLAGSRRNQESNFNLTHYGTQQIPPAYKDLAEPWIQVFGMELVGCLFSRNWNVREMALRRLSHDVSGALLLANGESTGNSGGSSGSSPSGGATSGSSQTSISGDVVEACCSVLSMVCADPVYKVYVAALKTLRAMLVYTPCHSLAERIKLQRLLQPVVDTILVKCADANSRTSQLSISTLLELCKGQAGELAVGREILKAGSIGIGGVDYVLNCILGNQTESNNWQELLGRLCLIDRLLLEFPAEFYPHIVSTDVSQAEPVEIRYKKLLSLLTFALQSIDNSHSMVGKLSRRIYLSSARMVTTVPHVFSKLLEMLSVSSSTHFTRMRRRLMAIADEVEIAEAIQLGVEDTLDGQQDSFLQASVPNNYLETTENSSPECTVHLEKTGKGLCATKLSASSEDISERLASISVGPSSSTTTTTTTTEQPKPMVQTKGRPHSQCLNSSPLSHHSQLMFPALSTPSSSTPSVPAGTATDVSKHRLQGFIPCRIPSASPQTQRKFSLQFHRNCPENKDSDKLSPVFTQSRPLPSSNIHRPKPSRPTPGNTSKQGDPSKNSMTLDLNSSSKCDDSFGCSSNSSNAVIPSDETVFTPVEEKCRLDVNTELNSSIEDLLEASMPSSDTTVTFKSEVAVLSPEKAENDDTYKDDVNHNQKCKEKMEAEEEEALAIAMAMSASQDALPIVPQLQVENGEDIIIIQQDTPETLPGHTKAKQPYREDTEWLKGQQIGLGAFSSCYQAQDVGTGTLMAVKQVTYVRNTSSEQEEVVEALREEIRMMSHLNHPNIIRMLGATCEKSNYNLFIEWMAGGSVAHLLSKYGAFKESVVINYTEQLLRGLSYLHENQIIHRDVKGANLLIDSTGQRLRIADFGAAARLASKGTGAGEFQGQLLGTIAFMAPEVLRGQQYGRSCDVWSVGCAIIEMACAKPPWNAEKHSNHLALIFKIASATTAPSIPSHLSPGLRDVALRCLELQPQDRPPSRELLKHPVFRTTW
Chain of DYRK1B (Q9Y463 whole entry): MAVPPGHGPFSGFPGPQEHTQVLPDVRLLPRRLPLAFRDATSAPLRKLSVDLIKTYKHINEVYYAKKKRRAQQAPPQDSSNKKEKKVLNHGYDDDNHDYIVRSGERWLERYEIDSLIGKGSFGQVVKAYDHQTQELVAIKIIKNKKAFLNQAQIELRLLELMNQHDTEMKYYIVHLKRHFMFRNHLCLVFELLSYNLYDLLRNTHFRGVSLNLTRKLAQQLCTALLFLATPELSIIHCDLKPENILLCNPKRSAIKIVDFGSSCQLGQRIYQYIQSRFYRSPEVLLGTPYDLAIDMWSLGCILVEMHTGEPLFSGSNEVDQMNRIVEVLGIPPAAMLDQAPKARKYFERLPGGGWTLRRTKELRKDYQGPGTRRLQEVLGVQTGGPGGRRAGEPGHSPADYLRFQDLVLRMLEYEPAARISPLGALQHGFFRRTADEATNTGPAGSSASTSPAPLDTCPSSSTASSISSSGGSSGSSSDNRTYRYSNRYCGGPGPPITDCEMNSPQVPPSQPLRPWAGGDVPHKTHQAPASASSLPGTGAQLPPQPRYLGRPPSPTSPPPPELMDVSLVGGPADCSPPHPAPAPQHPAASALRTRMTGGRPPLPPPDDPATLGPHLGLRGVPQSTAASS
Chain of KIT(V559D,T670I) (P10721 26-976 V559D/T670I): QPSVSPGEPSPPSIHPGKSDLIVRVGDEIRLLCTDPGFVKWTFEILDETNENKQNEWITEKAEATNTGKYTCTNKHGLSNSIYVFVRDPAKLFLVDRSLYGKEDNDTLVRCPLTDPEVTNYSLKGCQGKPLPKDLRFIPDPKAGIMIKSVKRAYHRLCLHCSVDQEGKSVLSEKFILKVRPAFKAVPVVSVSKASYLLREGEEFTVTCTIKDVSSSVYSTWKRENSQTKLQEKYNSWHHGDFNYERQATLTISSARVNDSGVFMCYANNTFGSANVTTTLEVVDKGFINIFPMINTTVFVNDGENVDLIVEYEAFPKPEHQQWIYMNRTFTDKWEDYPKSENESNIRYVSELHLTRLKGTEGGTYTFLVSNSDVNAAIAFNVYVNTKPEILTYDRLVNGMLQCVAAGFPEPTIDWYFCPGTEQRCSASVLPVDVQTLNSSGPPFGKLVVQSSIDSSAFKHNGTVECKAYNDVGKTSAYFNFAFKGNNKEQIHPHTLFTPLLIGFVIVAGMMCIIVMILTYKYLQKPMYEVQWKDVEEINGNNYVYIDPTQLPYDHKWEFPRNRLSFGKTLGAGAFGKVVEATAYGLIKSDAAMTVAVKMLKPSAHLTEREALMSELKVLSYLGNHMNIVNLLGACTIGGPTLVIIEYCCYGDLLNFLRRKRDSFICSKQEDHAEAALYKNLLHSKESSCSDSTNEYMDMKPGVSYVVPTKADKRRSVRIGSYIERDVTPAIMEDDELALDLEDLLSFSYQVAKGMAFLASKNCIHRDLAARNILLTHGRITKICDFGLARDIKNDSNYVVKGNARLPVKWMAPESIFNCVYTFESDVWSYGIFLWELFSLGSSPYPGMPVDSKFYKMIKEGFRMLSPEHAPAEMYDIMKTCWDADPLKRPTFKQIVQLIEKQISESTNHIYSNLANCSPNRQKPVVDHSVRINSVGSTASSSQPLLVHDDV
Chain of RSK3(Kin.Dom.1-N-terminal) (Q15349 59-318): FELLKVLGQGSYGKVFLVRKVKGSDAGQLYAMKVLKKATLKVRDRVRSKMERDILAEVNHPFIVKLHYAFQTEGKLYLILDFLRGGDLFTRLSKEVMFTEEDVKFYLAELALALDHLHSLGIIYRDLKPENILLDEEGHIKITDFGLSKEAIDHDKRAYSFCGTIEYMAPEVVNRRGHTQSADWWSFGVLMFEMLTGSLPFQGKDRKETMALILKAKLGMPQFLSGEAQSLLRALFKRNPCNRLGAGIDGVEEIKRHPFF
Chain of KIT(D816V) (P10721 26-976 D816V): as the sequence (P10721 26-976 V559D/T670I) above, with D534V, I645T, D791V counted along it

CN(C[C@@H](O)Cc1ccccc1)C(=O)c1cncc(C#Cc2cnn(C(F)F)c2)c1 [Example 2, (S)-5-((1-(difluoromethyl)-1H-pyrazol-4-yl)ethynyl)-N-(2-hydroxy-3-phenylpropyl)-N-methylnicotinamide]
remaining activity at 0.1 µM ([1]; MAP3K1): 100% | remaining activity at 0.1 µM ([2]; MELK): 77% | remaining activity at 0.1 µM ([3]; TAK1): 97% | remaining activity at 0.1 µM ([4]; EPHA1): 100% | remaining activity at 0.1 µM ([5]; ABL1(Y253F)-pho sphorylated): 100% | remaining activity at 0.1 µM ([6]; ROCK1): 100% | remaining activity at 0.1 µM ([7]; HCK): 100% | remaining activity at 0.1 µM ([8]; PIK3CA(E545K)): 91% | remaining activity at 0.1 µM ([9]; S6K1): 95% | remaining activity at 0.1 µM ([10]; MET(M1250T)): 100% | remaining activity at 0.1 µM ([11]; CAMKK1): 100% | remaining activity at 0.1 µM ([12]; PCTK1): 91% | remaining activity at 0.1 µM ([13]; RSK3(Kin.Dom.2-C-terminal)): 100% | remaining activity at 0.1 µM ([14]; DYRK1B): 97% | remaining activity at 0.1 µM ([15]; KIT(D816V)): 100% | remaining activity at 0.1 µM ([16]; EGFR(E746-A750del)): 100% | remaining activity at 0.1 µM ([17]; CLK2): 95% | remaining activity at 0.1 µM ([18]; RSK3(Kin.Dom.1-N-terminal)): 97% | remaining activity at 0.1 µM ([19]; PIP5K1A): 100% | remaining activity at 0.1 µM ([20]; CSNK1G3): 99% | remaining activity at 0.1 µM ([21]; MUSK): 100% | remaining activity at 0.1 µM ([22]; IRAK4): 91% | remaining activity at 0.1 µM ([23]; FLT3(N841I)): 99% | remaining activity at 0.1 µM ([24]; DAPK1): 100% | remaining activity at 0.1 µM ([25]; KIT(V559D,T670I)): 97% | remaining activity at 0.1 µM ([26]; INSRR): 100% | remaining activity at 0.1 µM ([27]; PKAC-beta): 92%

CN(C[C@H](Cc1ccccc1)OP(=O)(O)O)C(=O)c1cncc(C#Cc2cnn(C(F)F)c2)c1 [Example 19, (S)-1-(5-((1-(difluoromethyl)-1H-pyrazol-4-yl)ethynyl)-N-methylnicotinamido)-3-phenylpropan-2-yl dihydrogen phosphate]
remaining activity at 0.1 µM [1]: 100% | remaining activity at 0.1 µM [2]: 83% | remaining activity at 0.1 µM [3]: 95% | remaining activity at 0.1 µM [4]: 100% | remaining activity at 0.1 µM [5]: 100% | remaining activity at 0.1 µM [6]: 100% | remaining activity at 0.1 µM [7]: 100% | remaining activity at 0.1 µM [8]: 85% | remaining activity at 0.1 µM [9]: 95% | remaining activity at 0.1 µM [10]: 100% | remaining activity at 0.1 µM [11]: 100% | remaining activity at 0.1 µM [12]: 84% | remaining activity at 0.1 µM [13]: 100% | remaining activity at 0.1 µM [14]: 79% | remaining activity at 0.1 µM [15]: 100% | remaining activity at 0.1 µM [16]: 94% | remaining activity at 0.1 µM [17]: 100% | remaining activity at 0.1 µM [18]: 100% | remaining activity at 0.1 µM [19]: 92% | remaining activity at 0.1 µM [20]: 100% | remaining activity at 0.1 µM [21]: 100% | remaining activity at 0.1 µM [22]: 83% | remaining activity at 0.1 µM [23]: 96% | remaining activity at 0.1 µM [24]: 100% | remaining activity at 0.1 µM [25]: 100% | remaining activity at 0.1 µM [26]: 100% | remaining activity at 0.1 µM [27]: 100%
